Molecular target: S-RBD-His (Omicron) (SARS-CoV-2 B.1.1.529 (Omicron) Spike RBD Protein) (Severe acute respiratory syndrome coronavirus 2, UniProt P0DTC2, E484A/G339D/G446S/G496S/K417N/N440K/N501Y/Q493R/Q498R/S371L/S373P/S375F/S477N/T478K/Y505H)

## O=[N+]([O-])[O-].O=[N+]1C2CC3CC(C2)CC1C3 [AZADO-Oxo]
  shift of fluorescence peak (binding amount between spike protein and ACE2): a certain inactivation effect was obtained

Reference: patent publication US20260083122A1, “METHOD AND AGENT FOR INACTIVATING BACTERIA OR VIRUSES, AND ANTIVIRAL BASE MATERIAL USING SAME” (NISSAN MOTOR CO., LTD., priority 2022, published 2026)
